Data published in patent publication US20250319053A1, “INHIBITORS OF THE PEPTIDYL-PROLYL CIS/TRANS ISOMERASE (PIN1), COMBINATIONS AND USES THEREOF” (DANA-FARBER CANCER INSTITUTE, INC., priority 2021, published 2025).

Legend:
human PDAC organoids = experiment: Organoid apoptosis assay, co-culture with activated human PBMCs; format: cell-based; settings: Pin1i−2 at 5 μM 3 days, αPD1 at 200 μg/mL for 40 hrs
Procedure: For assaying the effects of Pin1 inhibition on anti-PD1 or PDL1 sensitivity, organoids and PBMCs were co-culture as described previously (Dijkstra et al., 2018; Jiao et al., 2017). […] Human PBMCs (Precision for Medicine) were stimulated by PDAC organoid culture media, and 8.0×10^4 PBMCs were incubated with 2 pl CD3/28 beads (11161D, GIBCO) and 30 U recombinant IL-2 (200-02, Peprotech) per well in 96-well plates for 24 hours before starting co-culture. […] At the start of co-culture, a green-fluorescent caspase 3/7 probe reagent (R37111, Invitrogen) and Hoechst (135102, Invitrogen) were added to visualize cells undergoing apoptosis. Apoptotic organoids were monitored by live-cell time lapse imaging was started 2 hours after the start of co-culture using BZ-X800 fluorescence microscope (KEYENCE) and quantified using BZ-X800 analyzer (ver. 1.1.1.8, KEYENCE). […] Synergy scores were calculated by Synergyfinder ver 2 (synergyfinder.fimm.fi/) (Ianevski et al., Nucleic Acids Res. 48 IW1), […]-[…] (2020)).

[1] = test system: patient-derived PDAC tumors in PDTX mice; experiment: Patient-derived tumor orthotopic xenograft (PDTX) mouse model; format: in vivo
Description: Allelic profiling of resulting KPC mice by the B6 panel (Jackson Laboratories) confirmed 129S1/SvImJ with average match of 84.2%, 129S4SvJae with average match of 83.8%, B6N with average match of 65.7% and B6J, with average match of 65.1%. 2) the KPC Genetically engineered mouse-derived orthotopic allografts (GDA) mouse model (Hingorani et al., Cancer Cell 7, 469-483 (2005); Li et al., Comput Struct Biotechnol J 17, 498-506 (2019)). Mouse PDAC cells were established from KPC mouse pancreatic tumor tissues, followed by orthotopically injecting 1×10^6 mouse PDAC cells in 50 μL Matrigel (356231, Coaning) into the pancreas of female 8 week-old syngeneic immunocompetent C57BL/6 mice (Jackson Laboratories). 3) PDAC Patient-derived Tumor orthotopic xenografted (PDTX) mouse model (Gilles et al., Clin Cancer Res 24, 1734-1747 (2018); Rubio-Viqueira et al., Clin Cancer Res 12, 4652-4661 (2006)). PDAC PDX tumors were obtained from Dr. Muthuswamy and Dr. Hidalgo and divided into 4×2 mm pieces, followed by xenografting orthotopically into the pancreas of female 8-week-old immunodeficient NOD.Cg-Prkdc^scid Il12rg^tm1Wjl/SzJ (NOD scid gamma; NSG) mice (Jackson Laboratories). 4) PDAC Patient-derived Organoid and CAFs orthotopic xenograft (PDOX) mouse model (Dantes et al., JCI Insight 5, 137809 (2020); (Koikawa et al., Cancer letters 425, 65-77 (2018)). 5×10^4 patient derived PDAC organoids and 5×10^4 patient derived CAFs in 50 μL of Matrigel were injected orthotopically into the pancreas of female 8 week-old immunodeficient NSG mice (Jackson Laboratories).
Briefly, all mice were randomly selected to receive treatments groups. Tumor sizes were measured by weekly palpation with electronic caliper or ultrasound, and when tumors were reached >0.5 cm, the treatment was started. Briefly, animals were placed under general anesthesia with 2%-3% isoflurane once a week. Under general anesthesia, the abdominal wall became very flaccid, and the muscle tone of the mouse was very low. The mouse was scuffed with the left hand to allow for palpation and measurement with the right hand. This allowed to detect the firm pancreatic mass by palpation, and to determine its size by electronic caliper measurements. […] In the GDA model and PDX models, palpable tumors predictably were detectable within 4-7 days post implantation. […] When the tumor by palpation after age 12 weeks could not be detected, the mice were monitored by ultrasound. Once the maximum length >0.5 cm tumor was detected, the mice were randomized to treatment, and then followed tumor growth by electronic caliper measurement. To validate the external caliper measurements, the tumor size was measured prior to euthanization of the mice and then measured the actual tumor size upon necropsy to ascertain concordance. […]

advanced PDAC patients = settings: cited from earlier work

Row | SMILES | apoptosis of WT organoids (human PDAC organoids) | CAF activation (IF for αSMA or PDGFRα) ([1]; PDTX mice, 4 weeks) | collagen deposition (Sirius Red staining) ([1]; PDTX mice, 4 weeks) | tumor growth ([1]; overt tumor-bearing PDTX mice, 4 weeks) | overall survival (OS) (advanced PDAC patients) | response rate (advanced PDAC patients) | Median survival ([1]; PDTX mice, FIG. 8M, GEM 20 mg/kg, n=6, vehicle 36 days)
1 | CC(C)(C)CN(C(=O)CCl)C1CCS(=O)(=O)C1 (stereo not shown) [Pin1i−2, sulfopin] | promoted the apoptosis of WT organoids | significantly reduced | significantly reduced | significantly reduced tumor growth |  |  | 
2 | Nc1ccn([C@@H]2O[C@H](CO)[C@@H](O)C2(F)F)c(=O)n1 [GEM, gemcitabine, reference compound] |  |  |  |  | 6.6 month | 23.8% | 42.5 days
